Reference: US9068231B2, “Method for screening cancer therapeutic agent using galectin-3, GSK-3β, and fascin-1” (National Cancer Center, priority 2010, dated 2015)

Tests used:
Format in all cases: cell-based, human
[1] = system: phosphorylated GSK-3β, β-catenin; assay: Western blotting of nuclear and cytosol fractions; settings: MKN-28 cells
Experimental: (§1) Whole-cell lysate was used as a positive control. […] Whole-cell lysates were used as a positive control. (C) Chromatin immunoprecipitation assay was performed as described in the Materials and Methods of the Example section. Total genomic DNA on an input lane was used as a control for the PCR reaction. (D) Luciferase activity of TCF4 in lacZ and galectin-3 overexpressing cells. Luciferase assay was performed as described in the Example section. A construct of SP1 consensus was used as a negative control. […] Lamin A/C was used as a nuclear fraction control;
(§2) For use in Western blotting and immunoprecipitation, cell lysates were prepared in RIPA buffer containing a protease inhibitor cocktail. Immunoblotting was performed with anti-galectin-3, anti-fascin-1, anti-GSK-3β, anti-TCF-4 (Santa-Cruz), anti-GSK-3β[pS^[…]] (biosourse), anti-β-catenin and anti-lamin A/C (Cell-Signaling), and anti-β-actin (Sigma). Immunoprecipitation was performed with A/G agarose beads coated with anti-galectin-3 and anti-β-catenin. Proteins were detected by Western Blotting with anti-galectin-3, anti-β-catenin, anti-GSK-3β and anti-TCF-4. Mouse/rabbit IgG was used as a negative control.

fascin-1 [2] = assay: RT-PCR and Western blotting of fascin-1 after siRNA transfection in MKN-28 cells
Experimental: (A) mRNA and protein levels of galectin-3 and fascin-1 in human gastric cancer MKN-28 cells after transfection with scrambled siRNA (scRNA) or galectin-3 siRNA at two different concentrations (5 and 10 nmol/L). Total RNA and protein obtained from the cells harvested 48 hrs after the transfection were analyzed by RT-PCR and Western blotting. β-actin was used as a loading control. (B) Immunocytochemical analysis of scRNA or galectin-3 siRNA-transfected MKN-28 cells by DAPI (blue), anti-fascin-1 FITC (green) and anti-F-actin Texas Red (red) was detected with a confocal microscope. Bars represent a length of 10 μm. (C and D) A histogram depicting the migration of galectin-3 silenced cells. […] (E) Expression levels of galectin-3 and fascin-1 in SNU-638 cells were determined by Western blotting after transfection with pcDNA3.1/NT-GFP-Galectin-3 and vector control of pcDNA3.1/NT-GFP. β-actin was used as a loading control;
(A) Fascin-1 protein expression in MKN-28 cells transfected with scrambled siRNA (scRNA) or fascin-1 siRNA. β-actin was used as a loading control. […] Cell migration was measured by microscopy; […]
(§3) For use in Western blotting and immunoprecipitation, cell lysates were prepared in RIPA buffer containing a protease inhibitor cocktail. […] Proteins were detected by Western Blotting with anti-galectin-3, anti-β-catenin, anti-GSK-3β and anti-TCF-4. […]

fascin-1 promoter = assay: Chromatin immunoprecipitation assay on fascin-1 promoter; settings: ChIP assay, with or without galectin-3
Experimental: as §1
Chromatin immunoprecipitation assays were performed using a chIP assay kit (Upstate), according to the manufacturer's instructions. Anti-TCF4, anti-β-catenin, anti-galectin-3, and rabbit IgG were used to immunoprecipitate DNA-containing complexes. Primer was prepared with fascin-1 promoter binding sites: fascin-1 promoter (−1321), 5′-[…]-3′ (SEQ ID NO. 11) and (−1061) 5′-[…]-3′ (SEQ ID NO. 12), followed by performing PCR.

MKN-28 cells [3] = assay: Wound healing assay
Experimental: (§4) Transfilter migration and invasion assays were performed with 8.0-μm pore inserts in a 24-well Transwell. For this assay, MKN-28 and SNU638 cells were transfected overnight with siRNAs. Then, they were isolated and added to the upper chamber of a Transwell with 0.5 mg/mL collagen type 1 (BD Bioscience)-coated filters in migration assay. The invasion assay was performed using 1/15 diluted Matrigel (BD Bioscience)-coated filters at 2×10^4 cells/well. RPMI 1640 supplemented with 10% fetal bovine serum and 1% antibiotics was added to the lower chamber and the cells were allowed to incubate for 20 hours. Migrating and invading cells were quantified after H&E staining. Each experiment was performed in triplicate and mean values are presented. A wound healing assay was performed according to the published protocol (Liang C C, Park A Y, Guan J L. In vitro scratch assay: a convenient and inexpensive method for analysis of cell migration in vitro. Nat Protoc 2007; 2:329-33).

GSK-3β, β-catenin = assay: Immunocytochemistry of GSK-3β and β-catenin localization; settings: galectin-3-silenced cells, confocal microscope
Experimental: DAPI was used to figure out the nucleus (blue). Bars represent a 10 μm length;
(§5) Cells cultured in chamber slides were fixed and blocked with 5% bovine serum albumin (BSA) in PBS and then incubated with primary anti-galectin-3, anti-fascin-1, anti-GSK-3β, anti-β-catenin antibodies diluted (1:200) in PBS. The cells were conjugated with the secondary antibodies labeled with FITC, Cy5 (Zymed), or Texas Red-X phalloidin (Invitrogen). The samples were treated with a mounting medium, and analyzed with a confocal microscope (Carl-Zeiss).

β-catenin/TCF-4 = assay: Immunoprecipitation and Western blot of GSK-3β, β-catenin and TCF-4 interaction; settings: MKN-28 cells, immunoprecipitation
Experimental: as §1, §2

galectin-3 = assay: RT-PCR and Western blotting of galectin-3 after siRNA transfection; settings: MKN-28 cells, siRNA 5 and 10 nmol/L, 48 hrs after transfection
Experimental: (A) mRNA and protein levels of galectin-3 and fascin-1 in human gastric cancer MKN-28 cells after transfection with scrambled siRNA (scRNA) or galectin-3 siRNA at two different concentrations (5 and 10 nmol/L). Total RNA and protein obtained from the cells harvested 48 hrs after the transfection were analyzed by RT-PCR and Western blotting. β-actin was used as a loading control. (B) Immunocytochemical analysis of scRNA or galectin-3 siRNA-transfected MKN-28 cells by DAPI (blue), anti-fascin-1 FITC (green) and anti-F-actin Texas Red (red) was detected with a confocal microscope. Bars represent a length of 10 μm. (C and D) A histogram depicting the migration of galectin-3 silenced cells. The results of the migration assay are presented with a statistical significance (P<0.0005) (C), and in cell photographs (D). (E) Expression levels of galectin-3 and fascin-1 in SNU-638 cells were determined by Western blotting after transfection with pcDNA3.1/NT-GFP-Galectin-3 and vector control of pcDNA3.1/NT-GFP. β-actin was used as a loading control; […]
as §3

MKN-28 cells [4] = assay: Transfilter migration assay; settings: 20 hours, collagen type 1-coated filters
Experimental: as §4

MKN-28 cells [5] = assay: Colony formation (soft agar growth) assay; settings: 3 weeks
Experimental: A layer of 0.5 mL RPMI 1640 containing 0.5% agar and 5% fetal bovine serum was placed in 24-well plates. After solidification of this bottom layer, cells transfected with galectin-3 and fascin-1 siRNAs (1.25×10^4 per well) were poured into a top layer of 0.25 mL RPMI 1640 containing 0.3% agar and 5% fetal bovine serum. Colonies were scored by microscopic examination after 3 weeks. All samples were prepared in triplicate.

MKN-28 cells [6] = assay: Invasion assay (Matrigel-coated filters); settings: 20 hours
Experimental: as §4

MKN-28 cells [7] = assay: Immunocytochemistry (fascin-1, F-actin, cell morphology); settings: confocal microscopy
Experimental: (A) mRNA and protein levels of galectin-3 and fascin-1 in human gastric cancer MKN-28 cells after transfection with scrambled siRNA (scRNA) or galectin-3 siRNA at two different concentrations (5 and 10 nmol/L). Total RNA and protein obtained from the cells harvested 48 hrs after the transfection were analyzed by RT-PCR and Western blotting. β-actin was used as a loading control. (B) Immunocytochemical analysis of scRNA or galectin-3 siRNA-transfected MKN-28 cells by DAPI (blue), anti-fascin-1 FITC (green) and anti-F-actin Texas Red (red) was detected with a confocal microscope. Bars represent a length of 10 μm. (C and D) A histogram depicting the migration of galectin-3 silenced cells. The results of the migration assay are presented with a statistical significance (P<0.0005) (C), and in cell photographs (D). (E) Expression levels of galectin-3 and fascin-1 in SNU-638 cells were determined by Western blotting after transfection with pcDNA3.1/NT-GFP-Galectin-3 and vector control of pcDNA3.1/NT-GFP. β-actin was used as a loading control;
(A) Fascin-1 protein expression in MKN-28 cells transfected with scrambled siRNA (scRNA) or fascin-1 siRNA. β-actin was used as a loading control. (B) Immunocytochemical analysis of MKN-28 cells transfected with scRNA or fascin-1 siRNA by DAPI (blue), anti-fascin-1 FITC (green) and anti-F-actin Texas Red (red) was conducted using confocal microscopy. Bars represent 10 μm in length. (C) Cell migration in fascin-1-silenced MKN-28 cells. Results of the migration assay are presented as a histogram, with statistical significance (P<0.0004). ([…]) (D) Colony formation assay, (E) invasion assay, and (F) wound healing assay of MKN-28 cells were performed with transfected galectin-3 and fascin-1 siRNAs. Results of the colony formation assay and invasion assay are shown as a histogram, with statistical significance (P<0.0005). Cell migration was measured by microscopy;
as §5

SNU638 cells [8] = assay: Transfilter migration assay in galectin-3-overexpressing SNU638 cells; settings: SNU638 cells infected with galectin-3 lenti-virus
Experimental: (§6) (A) Expression levels of galectin-3 and fascin-1 were detected by Western blot analysis in SNU-638 cells which were infected with a lenti-virus containing LacZ or galectin-3 and then transfected with fascin-1 siRNA or scrambled RNA as a negative control. β-actin was used as a loading control. (B and C) These cells were analyzed by migration assay (B) and invasion assay (C), presented as histograms (P<0.0005);
as §4

SNU638 cells [9] = assay: Invasion assay in galectin-3-overexpressing SNU638 cells; settings: SNU638 cells infected with galectin-3 lenti-virus
Experimental: as §6, §4

fascin-1 [10] = assay: Western blot of fascin-1 in galectin-3-overexpressing SNU638 cells; settings: SNU638 cells infected with galectin-3 lenti-virus
Experimental: as §6, §2
The full-length human galectin-3 gene cloned in the expression vector pcDNA3.1-NT-GFP-gal3 was amplified by PCR using a primer set of 5′-[…]-3′ (SEQ ID NO. 13) and 5′-[…]-3′ (SEQ ID NO. 14). The PCR product thus obtained was cloned into pcDNA3.1-NT-GFP using the TA cloning method (Invitrogen). […]

“5′-AUAUGAAGCACUGGUGAGGUCUAUG-3′ (listed as RNA, chemistry not given here) [galectin-3 siRNA, siRNA silencing galectin-3, obtained from Invitrogen]” was tested, and the “level of phosphorylated GSK-3β” value [1] was “decreased in both the nucleus and the cytosol”, the “level of β-catenin” value [1] was “decreased in both the nucleus and the cytosol” and the “expression levels of mRNAs and proteins of fascin-1” value (fascin-1 [2]; galectin-3 siRNA 5 and 10 nmol/L, 48 hrs after transfection) was “reduction in the expression levels”. The “binding of β-catenin and TCF-4 to the promoter regions of fascin-1” value (fascin-1 promoter) was “lost their binding activity”, the wound healing (MKN-28 cells [3]) was “significantly reduced” and the “localization of GSK-3β” value (GSK-3β, β-catenin) was “located only in cytosol”. For the same substance, the “localization of β-catenin” value (GSK-3β, β-catenin) was “not detected either in the nucleus or cytosol”, the “interaction between GSK-3β and β-catenin” value (β-catenin/TCF-4) was “weakened” and the “interaction between β-catenin and TCF-4” value (β-catenin/TCF-4) was “diminished”. The “expression levels of mRNAs and proteins of galectin-3” value (galectin-3) was “reduction in the expression levels”, the “total number of migrated cells / cell migration” value (MKN-28 cells [4]) was “reduced by almost half” and the colony formation (MKN-28 cells [5]) was “significantly reduced”. The cell invasion (MKN-28 cells [6]) was “significantly reduced”, the F-actin localization (MKN-28 cells [7]) was “appeared only at cell-cell contact areas” and the cell morphology (MKN-28 cells [7]) was “became round in shape and did not have any protruding regions”. For the same substance, the “fascin-1 expression in the cytosol (immunocytochemistry)” value (MKN-28 cells [7]) was “diminished in the cytosol”.

“5′-UCCAGCAAGAAUGCCAGCUGCU ACU-3′ (listed as RNA, chemistry not given here) [fascin-1 siRNA, siRNA silencing fascin-1, obtained from Invitrogen; called a candidate therapeutic agent]” was tested, and the fascin-1 protein expression (fascin-1 [2]; fascin-1 siRNA, Western blot) was “reduced fascin-1 expression”, the “cell migration increased by galectin-3 overexpression” value (SNU638 cells [8]) was “significantly reduced” and the “cell invasion by galectin-3 overexpression” value (SNU638 cells [9]) was “inhibitory effect”. The wound healing (MKN-28 cells [3]) was “significantly reduced”, the “level of fascin-1 protein” value (fascin-1 [10]) was “diminished” and the “total number of migrated cells / cell migration” value (MKN-28 cells [4]) was “decreased the migration”. For the same substance, the colony formation (MKN-28 cells [5]) was “significantly reduced”, the cell invasion (MKN-28 cells [6]) was “significantly reduced” and the F-actin localization (MKN-28 cells [7]) was “appeared only in cell-cell contact areas”. The cell morphology (MKN-28 cells [7]) was “changed to a round shape without spikes”.
